This is an account of results in patent US9296723B2, “NAMPT inhibitors” (AbbVie Inc., priority 2012, dated 2016).

NAMPT, sequence (P43490 whole entry): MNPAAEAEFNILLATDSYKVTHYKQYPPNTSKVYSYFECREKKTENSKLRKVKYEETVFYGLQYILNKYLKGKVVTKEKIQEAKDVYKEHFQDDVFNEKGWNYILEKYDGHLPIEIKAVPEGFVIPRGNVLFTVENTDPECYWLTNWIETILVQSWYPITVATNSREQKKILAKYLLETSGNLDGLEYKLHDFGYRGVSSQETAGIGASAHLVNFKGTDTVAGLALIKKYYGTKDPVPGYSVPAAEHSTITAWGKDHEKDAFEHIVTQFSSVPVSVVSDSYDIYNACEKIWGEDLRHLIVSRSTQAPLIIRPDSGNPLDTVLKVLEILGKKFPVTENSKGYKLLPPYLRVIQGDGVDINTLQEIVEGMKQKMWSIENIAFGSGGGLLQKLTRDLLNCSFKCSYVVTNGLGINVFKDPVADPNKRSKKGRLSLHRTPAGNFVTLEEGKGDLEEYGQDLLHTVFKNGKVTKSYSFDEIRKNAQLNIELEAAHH

In the first experiment the test system is PC3 cells. The experiment in a line: NAMPT Cell Proliferation Assay (Cell Titer Glo). In kind it is cell-based. Particulars: Homo sapiens, PC-3, 120 h, incubated 5 days, cell viability. Here is the method:
NAMPT Cell Proliferation Assay
PC3 cells were seeded in 96-well black plates (Corning #3904) at 500 cells/well in 90 µl of RPMI media containing 10% heat-inactivated FBS and incubated overnight at 37° C. and 5% CO2 to allow cells to attach to wells. The following day, test compounds were serially diluted in neat DMSO to 1000× final concentrations prior to dilution with RPMI media to 10× and 1% DMSO. Ten L of the 10× compounds were then transferred to wells containing cells to produce a dose response of 10-fold dilutions from […]. Cells were incubated for 5 days at 37° C. and 5% CO2, then cell viability was measured using Cell Titer Glo reagent (Promega #G7571). Percent inhibition values were calculated and fitted to a sigmoidal dose response curves using Assay Explorer software to determine IC50s.
What is called IC50 is the concentration that inhibits the measured activity by half. A high value points to weaker potency in that assay. Take `O=C(Nc1ccc(O[C@H]2CCN(C(=O)C3CC3)C2)cc1)N1CC(c2cccnc2)C1` [Example 97, N-(4-{[(3S)-1-(cyclopropylcarbonyl)pyrrolidin-3-yl]oxy}phenyl)-3-(pyridin-3-yl)azetidine-1-carboxamide]: 76.7 nM corresponded to half-maximal inhibition (IC50).

`Cn1cccc1C(=O)N1CCC(Oc2ccc(NC(=O)N3CC(c4cccnc4)C3)cc2)CC1` [Example 36, N-[4-({1-[(1-methyl-1H-pyrrol-2-yl)carbonyl]piperidin-4-yl}oxy)phenyl]-3-(pyridin-3-yl)azetidine-1-carboxamide] had a half-inhibitory concentration (IC50) of 59.5 nM.

For the compound `O=C(CCN1CCOCC1)N1CCC(c2ccc(NC(=O)N3CC(c4cccnc4)C3)cc2)C1` (centres unmarked) [Example 281, N-(4-{1-[3-(morpholin-4-yl)propanoyl]pyrrolidin-3-yl}phenyl)-3-(pyridin-3-yl)azetidine-1-carboxamide], the concentration for half-maximal inhibition (IC50) stood at 125 nM.

`CC1(C(=O)N2CC[C@@H](Oc3ccc(NC(=O)N4CC(c5cccnc5)C4)cc3)C2)CCCCC1` [Example 316, N-[4-({(3R)-1-[(1-methylcyclohexyl)carbonyl]pyrrolidin-3-yl}oxy)phenyl]-3-(pyridin-3-yl)azetidine-1-carboxamide]: the IC50 is 17.3 nM.

Compound `CCCC(=O)N1CC[C@@H](Oc2ccc(NC(=O)N3CC(c4cccnc4)C3)cc2)C1` [Example 87, N-(4-{[(3R)-1-butanoylpyrrolidin-3-yl]oxy}phenyl)-3-(pyridin-3-yl)azetidine-1-carboxamide] displayed a half-maximal inhibitory concentration (IC50) of 6.04 nM.

In the case of `CCC(CC)C(=O)N1CCC(Cc2ccc(NC(=O)N3CC(c4cccnn4)C3)cc2)CC1` [Example 352, N-(4-{[1-(2-ethylbutanoyl)piperidin-4-yl]methyl}phenyl)-3-(pyridazin-3-yl)azetidine-1-carboxamide], the IC50 was 607 nM.

For the compound `O=C(Nc1ccc(C2CCN(C(=O)C3CC3)CC2)cc1)N1CC(c2cccnn2)C1` [Example 340, N-{4-[1-(cyclopropylcarbonyl)piperidin-4-yl]phenyl}-3-(pyridazin-3-yl)azetidine-1-carboxamide], the midpoint of inhibition, the IC50, lay at 2450 nM.

With `O=C(Nc1ccc(C2CCN(C(=O)c3ccccc3)CC2)cc1)N1CC(c2cccnn2)C1` [Example 336, N-[4-(1-benzoylpiperidin-4-yl)phenyl]-3-(pyridazin-3-yl)azetidine-1-carboxamide], the half-inhibitory concentration (IC50) came to 222 nM.

With `CC(C)C(=O)N1CCC(Cc2ccc(NC(=O)N3CC(c4cccnn4)C3)cc2)CC1` [Example 354, N-(4-{[1-(2-methylpropanoyl)piperidin-4-yl]methyl}phenyl)-3-(pyridazin-3-yl)azetidine-1-carboxamide], it took 994 nM to reach half-maximal inhibition (IC50).

In the case of `O=C(Nc1ccc(C2CCN(C(=O)C3CCC3)CC2)cc1)N1CC(c2cccnn2)C1` [Example 343, N-{4-[1-(cyclobutylcarbonyl)piperidin-4-yl]phenyl}-3-(pyridazin-3-yl)azetidine-1-carboxamide], the half-inhibitory concentration (IC50) was 831 nM.

As to `CC(C)(C)CC(=O)N1CCC(Cc2ccc(NC(=O)N3CC(c4cccnn4)C3)cc2)CC1` [Example 351, N-(4-{[1-(3,3-dimethylbutanoyl)piperidin-4-yl]methyl}phenyl)-3-(pyridazin-3-yl)azetidine-1-carboxamide], the half-inhibitory concentration (IC50) was 655 nM.

In turn, `O=C(CCC(F)(F)F)N1CCC(c2ccc(NC(=O)N3CC(c4cccnn4)C3)cc2)CC1` [Example 344, 3-(pyridazin-3-yl)-N-{4-[1-(4,4,4-trifluorobutanoyl)piperidin-4-yl]phenyl}azetidine-1-carboxamide] came in with an IC50 of 7670 nM.

Turning to `Cc1ccccc1C(=O)N1CCC(c2ccc(NC(=O)N3CC(c4cccnn4)C3)cc2)CC1` [Example 338, N-{4-[1-(2-methylbenzoyl)piperidin-4-yl]phenyl}-3-(pyridazin-3-yl)azetidine-1-carboxamide], the IC50 came out at 587 nM.

For `O=C(Nc1ccc(C2CCN(C(=O)c3ccccc3F)CC2)cc1)N1CC(c2cccnn2)C1` [Example 337, N-{4-[1-(2-fluorobenzoyl)piperidin-4-yl]phenyl}-3-(pyridazin-3-yl)azetidine-1-carboxamide], the IC50 was found to be 55.5 nM.

`O=C(CC(F)(F)F)N1CCC(c2ccc(NC(=O)N3CC(c4cccnn4)C3)cc2)CC1` [Example 345, 3-(pyridazin-3-yl)-N-{4-[1-(3,3,3-trifluoropropanoyl)piperidin-4-yl]phenyl}azetidine-1-carboxamide] returned a 50% inhibitory concentration (IC50) of 1130 nM.

In turn, `CC1(C(=O)N2CCC(c3ccc(NC(=O)N4CC(c5cccnn5)C4)cc3)CC2)CC1` [Example 346, N-(4-{1-[(1-methylcyclopropyl)carbonyl]piperidin-4-yl}phenyl)-3-(pyridazin-3-yl)azetidine-1-carboxamide] returned a 50% inhibitory concentration (IC50) of 843 nM.

Compound `CC(C)(C)C(=O)N1CCC(Cc2ccc(NC(=O)N3CC(c4cccnn4)C3)cc2)CC1` [Example 350, N-(4-{[1-(2,2-dimethylpropanoyl)piperidin-4-yl]methyl}phenyl)-3-(pyridazin-3-yl)azetidine-1-carboxamide] gave a half-inhibitory concentration (IC50) of 743 nM.

Take `CC(=O)N1CCC(Cc2ccc(NC(=O)N3CC(c4cccnn4)C3)cc2)CC1` [Example 355, N-{4-[(1-acetylpiperidin-4-yl)methyl]phenyl}-3-(pyridazin-3-yl)azetidine-1-carboxamide]: the IC50 stood at 7310 nM.

Compound `CC(C)(C)C(=O)N1CCC(c2ccc(NC(=O)N3CC(c4cccnn4)C3)cc2)CC1` [Example 339, N-{4-[1-(2,2-dimethylpropanoyl)piperidin-4-yl]phenyl}-3-(pyridazin-3-yl)azetidine-1-carboxamide] returned an IC50 of 668 nM.

`O=C(CC1CC1)N1CCC(c2ccc(NC(=O)N3CC(c4cccnn4)C3)cc2)CC1` [Example 347, N-{4-[1-(cyclopropylacetyl)piperidin-4-yl]phenyl}-3-(pyridazin-3-yl)azetidine-1-carboxamide]: the IC50 turned out to be 1550 nM.

`O=C(Nc1ccc(CC2CCN(C(=O)c3ccccc3F)CC2)cc1)N1CC(c2cccnn2)C1` [Example 349, N-(4-{[1-(2-fluorobenzoyl)piperidin-4-yl]methyl}phenyl)-3-(pyridazin-3-yl)azetidine-1-carboxamide] registered an IC50 of 772 nM.

`O=C(Nc1ccc(C2CCN(C(=O)[C@H]3CCOC3)CC2)cc1)N1CC(c2cnccc2Cl)C1` [Example 160, 3-(4-chloropyridin-3-yl)-N-(4-{1-[(3S)-tetrahydrofuran-3-ylcarbonyl]piperidin-4-yl}phenyl)azetidine-1-carboxamide] registered a concentration for half-maximal inhibition (IC50) of 639 nM.

For the compound `O=C(Nc1ccc(C2CCN(C(=O)[C@H]3CCOC3)CC2)cc1)N1CC(c2cccnc2)C1` [Example 159, 3-(pyridin-3-yl)-N-(4-{1-[(3S)-tetrahydrofuran-3-ylcarbonyl]piperidin-4-yl}phenyl)azetidine-1-carboxamide], the half-maximal inhibitory concentration (IC50) was 74.5 nM.

Consider `CC[C@H](C)C(=O)N1CCC(Cc2ccc(NC(=O)N3CC(c4cccnn4)C3)cc2)CC1` [Example 356, N-[4-({1-[(2S)-2-methylbutanoyl]piperidin-4-yl}methyl)phenyl]-3-(pyridazin-3-yl)azetidine-1-carboxamide], for which the half-maximal inhibitory concentration (IC50) came to 791 nM.

Compound `O=C(Nc1ccc(CC2CCN(C(=O)c3ccccc3)CC2)cc1)N1CC(c2cccnn2)C1` [Example 348, N-{4-[(1-benzoylpiperidin-4-yl)methyl]phenyl}-3-(pyridazin-3-yl)azetidine-1-carboxamide] gave a concentration for half-maximal inhibition (IC50) of 803 nM.

For the compound `CC(C)(C)CC(=O)N1CCC(c2ccc(NC(=O)N3CC(c4cccnn4)C3)cc2)CC1` [Example 342, N-{4-[1-(3,3-dimethylbutanoyl)piperidin-4-yl]phenyl}-3-(pyridazin-3-yl)azetidine-1-carboxamide], the concentration for half-maximal inhibition (IC50) is 390 nM.

As to `O=C(Nc1ccc(C2CCN(C(=O)C3CCOC3)CC2)cc1)N1CC(c2cccnc2)C1` (centres unmarked) [Example 53, 3-(pyridin-3-yl)-N-{4-[1-(tetrahydrofuran-3-ylcarbonyl)piperidin-4-yl]phenyl}azetidine-1-carboxamide], the midpoint of inhibition, the IC50, lay at 13.8 nM.

`CC1(C(=O)N2CCC(Cc3ccc(NC(=O)N4CC(c5cccnn5)C4)cc3)CC2)CC1` [Example 357, N-[4-({1-[(1-methylcyclopropyl)carbonyl]piperidin-4-yl}methyl)phenyl]-3-(pyridazin-3-yl)azetidine-1-carboxamide]: it took 703 nM to reach half-maximal inhibition (IC50).

The compound `CC(=O)N1CCC(c2ccc(NC(=O)N3CC(c4cccnn4)C3)cc2)CC1` [Example 341, N-[4-(1-acetylpiperidin-4-yl)phenyl]-3-(pyridazin-3-yl)azetidine-1-carboxamide] registered an IC50 of 8940 nM.

A further experiment addresses NAMPT (Homo sapiens, UniProt P43490). Description: Time-Resolved Fluorescence Resonance Energy Transfer (TR-FRET) Binding Assay of NAMPT. The conditions noted are these: 6.8 nM NAMPT, 200 nM probe, equilibrated 3 hours, no substrates. The protocol:
Determination of the utility of compounds having Formula (I) as binders to and inhibitors of NAMPT was performed using Time-Resolved Fluorescence Resonance Energy Transfer (TR-FRET) binding assays.
Time-Resolved Fluorescence Resonance Energy Transfer (TR-FRET) Binding Assay of NAMPT
Six L were transferred to 384-well low-volume plates ([…] #3673). To this, 12 L of a 1.5× solution containing enzyme, probe and antibody were added. […] Reactions were equilibrated at room temperature for 3 hours prior to reading on an Envision multi-label plate reader (Perkin Elmer; Ex=337 nm, Em=520 and 495 nm). Time-resolved FRET ratios (Em520/Em495) were normalized to controls, plotted as a function of compound concentration and fit with the four-parameter logistic equation to determine IC50s.
In general terms: TR-FRET usually uses a lanthanide donor and a delayed reading to cut background.
In turn, `O=C(Nc1ccc(O[C@H]2CCN(C(=O)C3CC3)C2)cc1)N1CC(c2cccnc2)C1` [Example 97, N-(4-{[(3S)-1-(cyclopropylcarbonyl)pyrrolidin-3-yl]oxy}phenyl)-3-(pyridin-3-yl)azetidine-1-carboxamide] yielded a 50% inhibitory concentration (IC50) of 168 nM.

Regarding `Cn1cccc1C(=O)N1CCC(Oc2ccc(NC(=O)N3CC(c4cccnc4)C3)cc2)CC1` [Example 36, N-[4-({1-[(1-methyl-1H-pyrrol-2-yl)carbonyl]piperidin-4-yl}oxy)phenyl]-3-(pyridin-3-yl)azetidine-1-carboxamide], the IC50 turned out to be 27.3 nM.

In turn, `O=C(CCN1CCOCC1)N1CCC(c2ccc(NC(=O)N3CC(c4cccnc4)C3)cc2)C1` (centres unmarked) [Example 281, N-(4-{1-[3-(morpholin-4-yl)propanoyl]pyrrolidin-3-yl}phenyl)-3-(pyridin-3-yl)azetidine-1-carboxamide] gave an IC50 of 65.6 nM.

`CC1(C(=O)N2CC[C@@H](Oc3ccc(NC(=O)N4CC(c5cccnc5)C4)cc3)C2)CCCCC1` [Example 316, N-[4-({(3R)-1-[(1-methylcyclohexyl)carbonyl]pyrrolidin-3-yl}oxy)phenyl]-3-(pyridin-3-yl)azetidine-1-carboxamide] gave an IC50 of 13.6 nM.

The compound `CCCC(=O)N1CC[C@@H](Oc2ccc(NC(=O)N3CC(c4cccnc4)C3)cc2)C1` [Example 87, N-(4-{[(3R)-1-butanoylpyrrolidin-3-yl]oxy}phenyl)-3-(pyridin-3-yl)azetidine-1-carboxamide] had a half-inhibitory concentration (IC50) of 19.8 nM.

`O=C(Nc1ccc(C2CN(CC3CCOC3)C2)cc1)N1CC(c2cccnc2)C1` (centres unmarked) [Example 256, 3-(pyridin-3-yl)-N-{4-[1-(tetrahydrofuran-3-ylmethyl)azetidin-3-yl]phenyl}azetidine-1-carboxamide] had an IC50 of 830 nM.
